Experimental data reported in the METLIN SMRT retention time set (Domingo-Almenara et al. 2019).

Assay: gradient 5% acetonitrile 3 min, to 50% in 2 min, to 85% in 15 min, held 3 min, 100 µL/min
Details: column: Zorbax Extend-C18 2.1 x 50 mm; eluents: water / acetonitrile, 0.1% formic acid
Procedure, shortened: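 Retention times of pure standards were taken from adduct peaks that were selected by computer and manually inspected. Over 3 months, mixtures of ~100 molecules were run by HPLC–quadrupole time-of-flight mass spectrometry in positive and negative ionization mode. The Zorbax Extend-C18 column (2.1 × 50 mm, 1.8 μm) ran at 100 μL/min in water and acetonitrile, each containing 0.1% formic acid, with 40 μL dead volume and 900 μL dwell volume.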

Row | RP-LC retention time [s] | SMILES
1 | 864 | O=C(Cc1ccsc1)N1CCC(c2nc(-c3ccccc3)no2)C1 (stereo not drawn)
2 | 1020 | Cc1cc(C)cc(NC(=O)Cn2nc(N3CCSCC3)c3ccccc3c2=O)c1
3 | 622 | O=C(c1ccccc1OCC1CCCN(C2CCC3(CC2)OCCO3)C1)N1CCCC1 (stereo not drawn)
4 | 1430 | COc1ccc(-c2nc(-c3ccc4oc(-c5ccccc5)nc4c3)no2)cn1
5 | 1000 | COc1ccc(C)cc1NC(=O)CN1C(=O)C2CCCCN2c2ccc(S(=O)(=O)N(C)C)cc21 (stereo not drawn)
6 | 785 | Cn1c(=O)c(SCC(=O)NCc2ccccc2F)nc2ccccc21
7 | 786 | O=C(Nc1ccccc1F)N1CC(c2nc(CCOCC3CC3)no2)C1
8 | 690 | CC(NC(=O)C1CCN(S(=O)(=O)c2ccc(C#N)cc2)CC1)C(=O)N1CCCc2ccccc21 (stereo not drawn)
9 | 608 | O=C1NCCCCCN(C(=O)c2ccc(Cn3cncn3)o2)[C@H]2CCC[C@@H]12
10 | 661 | Cc1cc(=O)n(CC(=O)Nc2ccccc2Cl)c(N2CCCC2)n1
11 | 962 | CCc1ccccc1NC(=O)N(C)CCc1noc(COc2ccccc2)n1
12 | 1160 | CCn1nccc1-c1cccc(-c2noc(-c3ccnc(Cl)c3)n2)c1
13 | 939 | CC(C)c1noc(-c2ccnc(-n3cnc(C(=O)NCc4ccccc4)c3)c2)n1
14 | 933 | COc1ccccc1N=NNc1ccccc1OC
15 | 871 | CCOC(=O)c1cnn(-c2ccc(Cl)nn2)c1C
16 | 942 | O=C(NCc1ccco1)C1CN(S(=O)(=O)c2ccccc2)CC12CCCCC2 (stereo not drawn)
17 | 1180 | COc1ccc(-c2cc(C(=O)Nc3ccc(F)c(F)c3)sn2)cc1
18 | 647 | Cc1cc(=O)n(CC(=O)NCc2ccc(F)cc2)c(N2CCOCC2)n1
19 | 1010 | COc1cc(OC)cc(-c2nc(C3CC(=O)N(c4ccc(C)cc4)C3)no2)c1 (stereo not drawn)
20 | 1090 | Cc1ccc(-c2nc(-c3cccc(-c4ccn[nH]4)c3)no2)cc1
21 | 1160 | Cc1ccccc1-c1nc(C2CCN(S(=O)(=O)c3cccc(F)c3)CC2)no1
22 | 546 | O=C(Cn1ccc2ccccc21)NCCn1nc(-n2ccnc2)ccc1=O

Row | RP-LC retention time [s] | SMILES
23 | 1100 | CC(C)Oc1ccc(-c2noc(Cn3c(=O)n(-c4ccccc4)c(=O)c4sccc43)n2)cc1
24 | 898 | CN(C)S(=O)(=O)c1ccc(-c2nnc(C(=O)NCc3ccc(F)c(Cl)c3)o2)cc1
25 | 795 | COc1cccc(-c2nc3sc(C(=O)N4CCOCC4)c(C)n3c2NC(C)(C)C)c1
26 | 565 | O=C(NCC1CCCO1)c1cn2ccccc2n1 (stereo not drawn)
27 | 682 | O=C(C1CC(=O)N(c2ccccc2)C1)N1CCC2(CC1)OCCS2 (stereo not drawn)
28 | 700 | O=c1ccc(N2CCC(NS(=O)(=O)c3cccnc3)CC2)nn1CC1CC1
29 | 696 | O=C(Cc1csc2nc(-c3ccccc3)cn12)NCc1ccco1
30 | 794 | CSc1ccc(-c2nc3ccccn3c2Nc2ccccc2C)cc1
31 | 918 | CCc1noc(NC(C)=O)c1-c1ccc(OC)c(S(=O)(=O)N2CC=C(c3ccccc3)CC2)c1
32 | 713 | O=C(C1CCC1)N1CCCC(OCc2nc(-c3ccncc3)no2)C1 (stereo not drawn)
33 | 758 | CCCC(CCC)C(=O)Nc1cc(-c2cn3cccnc3n2)ccc1C
34 | 744 | CCOc1cc2c(cc1OCC)C1C(C(=O)NCCCOC)c3ccccc3C(=O)N1CC2 (stereo not drawn)
35 | 851 | Cc1ccc(N2C(=O)N(CC(=O)N3CCCCC3C)C3CS(=O)(=O)CC32)cc1Cl (stereo not drawn)
36 | 696 | CNc1nc(Nc2cn(C(C)(C)C#N)nc2C)ncc1C(F)(F)F
37 | 1130 | Fc1ccc(Cc2nc3nccc(-c4cc5ccccc5o4)n3n2)cc1
38 | 630 | CCC(=O)Nc1ccc2c(c1)Sc1ncccc1C(=O)N2C
39 | 575 | O=C(CCOc1ccc(F)cc1)N1CCN(Cc2ccccc2)CC1
40 | 910 | O=C(COc1ccc(Cl)cc1)NCC(=O)N1CCCc2ccccc21
41 | 690 | CCc1noc(-c2cccnc2N2CCCN(Cc3cccc(C)c3)CC2)n1
42 | 703 | CC(C)COC(=O)Nc1nc(CC(=O)Nc2ccccc2C(N)=O)cs1
43 | 654 | Cc1cc(-c2nnc(NC(=O)c3ccn(C)n3)o2)c(C)o1
44 | 600 | COc1ccc(Nc2c(C(=O)N3CCCC3)cnc3nc(C)ccc23)c(OC)c1

Row | RP-LC retention time [s] | SMILES
45 | 534 | O=C(NCCN1CCCCC1)C1CCc2sc(C(=O)N3CCCC3)cc2C1 (stereo not drawn)
46 | 632 | Cc1ccc(Nc2cc(N3CCC(C(=O)N4CCCC4)CC3)ncn2)cc1
47 | 597 | Cc1ccc(C(=O)N2CCC(c3nc(-c4ccncc4)n[nH]3)CC2)s1
48 | 918 | CCCn1c(=O)sc2cc(S(=O)(=O)N3CCC(C(=O)Nc4ccc(OC)cc4)CC3)ccc21
49 | 759 | COc1nccnc1N1CCC(NS(=O)(=O)c2ccc(C)cc2)C1 (stereo not drawn)
50 | 920 | O=C(Nc1nc(-c2nc3ccccc3s2)cs1)c1c(F)cccc1F
51 | 810 | O=C(C1CCN(c2nc3ccc(-c4ccccc4)nc3s2)CC1)N1CCOCC1
52 | 907 | Cc1ccc(-n2c(=O)n(CC(=O)Nc3ccc(C)cc3C)c3cccnc32)cc1
53 | 695 | COCCc1noc(-c2ccc(=O)n(CC(=O)Nc3ccccc3F)c2)n1
54 | 544 | O=C(c1cn(CC(O)c2ccccc2)nn1)N1CCN(c2ccccn2)CC1 (stereo not drawn)
55 | 1260 | Cc1ccc(-c2noc(C3CCCN3S(=O)(=O)c3ccc(C)c(C)c3)n2)cc1 (stereo not drawn)
56 | 920 | CCOc1ccc(CCNC(=O)C2CCCN(C(=O)c3cc(C)cc(C)c3)C2)cc1OCC (stereo not drawn)
57 | 787 | C=CCN1C(=O)COc2ccc(-c3nc(NC(C)=O)sc3C)cc21
58 | 1170 | Clc1ccc(-c2csc(NCc3ccccc3)n2)cc1
59 | 725 | COc1ccc(NC(=O)c2ccc(C(=N)N(C)C)cc2)c(C(=O)Nc2ccc(Cl)cn2)c1
60 | 609 | CC(=O)Nc1ccc(-c2cc(C(=O)N3CCN(c4ccccn4)CC3)c3ccccc3n2)cc1
61 | 892 | Cc1ccccc1NC(=O)Cn1nc(N2CCSCC2)c2ccccc2c1=O
62 | 730 | Cc1ccc(NS(=O)(=O)c2cc(-c3[nH]ncc3C(=O)N(C)C)oc2C)cc1Cl
63 | 846 | COc1ccc(-c2cn3c(CC(=O)Nc4ccc(C(F)(F)F)cc4)csc3n2)cc1OC
64 | 824 | COc1ccc(S(=O)(=O)NCc2ccc3c(c2)CCN3C(=O)c2ccccc2)cc1OC
65 | 663 | Cc1ccc(CNC(=O)c2nc(-c3ccnc(N4CCCC4)c3)no2)o1
66 | 658 | O=C(Nc1cccc(Cl)c1)N1CCC(n2cnnc2C2CC2)C1 (stereo not drawn)

Row | RP-LC retention time [s] | SMILES
67 | 664 | O=C(NCCS(=O)(=O)N1CCN(c2ncccn2)CC1)Nc1cccs1
68 | 759 | Cc1ccc(-c2nnc(SCc3cc(=O)n4oc(C)cc4n3)o2)cc1
69 | 714 | CCn1ccc2sc(C)c(C(=O)N3CCN(c4ccc(OC)cc4)CC3)c2c1=O
70 | 794 | CC(=O)Nc1cc(C(=O)NCc2nn(Cc3ccccc3)c3ccccc23)ccc1C
71 | 1090 | Cc1nc(-c2ccc(-c3noc(Cc4c[nH]c5ccccc45)n3)cc2)cs1
72 | 717 | Cc1ccc(-c2nc3ccccn3c2Nc2ccc(F)cc2)cc1
73 | 561 | Cc1ccc(C)c(CN2CCC(CNC(=O)c3c(C)oc4c3C3=NCCN3C=N4)CC2)c1
74 | 973 | O=C(Cc1ccccc1Br)Nc1cc(-c2cccs2)no1
75 | 1040 | CCN1C(=O)COc2ccc(-c3noc(-c4cc(OC)cc(OC)c4)n3)cc21
76 | 931 | O=c1n(Cc2ccccc2)nc2n1CCN(S(=O)(=O)c1ccc3c(c1)CCC3)CC2
77 | 609 | COc1ccc(C2c3cc4c(c(OC)c3CC3OCC(=O)C32)OCO4)cc1OC (stereo not drawn)
78 | 956 | COc1cc(OC)c(NC(=O)N2CCC(n3c(C(F)(F)F)nc4cccnc43)CC2)cc1Cl
79 | 670 | CC(C)Cn1c(=O)c(-c2ccc(C(=O)N3CCN(C)CC3)cc2)nc2ccccc21
80 | 709 | COc1cc([C@@H]2c3cc4c(cc3[C@H](O)[C@@H](CO)[C@@H]2C(=O)NCc2ccc3c(c2)OCO3)OCO4)cc(OC)c1OC
81 | 1110 | CCCNC(=O)Cc1c(C)nn(-c2nc(-c3ccc(Cl)cc3)cs2)c1C
82 | 878 | O=C(NC1CC1)C1CCN(S(=O)(=O)c2cc(-c3noc(C4CCC4)n3)cs2)CC1
83 | 734 | CC(C)NC(=O)C1CCCN(S(=O)(=O)c2c[nH]c(C(=O)N3CCCCCC3)c2)C1 (stereo not drawn)
84 | 726 | CCOC(=O)C1CCN(C(=O)C2CCCN(c3ncnc4c3nc3n4CCCCC3)C2)CC1 (stereo not drawn)
85 | 954 | O=C(NC1CCCC1)C(c1ccc(Cl)cc1)N1CCN(C(=O)c2ccco2)CC1 (stereo not drawn)
86 | 1090 | O=S(=O)(c1ccccc1Br)N1CCc2nc(-c3ccccc3)ncc2C1
87 | 714 | O=C(NCc1ccc2c(c1)OCO2)C1CC(=O)N(c2ccc3c(c2)CCN3C(=O)C2CC2)C1 (stereo not drawn)
88 | 627 | Nc1cccc(C(=O)CC2(O)C(=O)Nc3ccc(Cl)cc32)c1 (stereo not drawn)
